We go through eleven compounds from patent publication US4853470A, “3-(piperidinyl)- and 3-(pyrrolidinyl)-1H-indazoles” (Hoechst-Roussel Pharmaceuticals, Inc., priority 1988, dated 1989).

Like-named read-outs stand apart in the source and are kept apart here.

Assay [1] has as its system tetrabenazine induced ptosis. The assay is described as follows: tetrabenazine induced ptosis assay (antidepressant activity). It counts as in vivo, mice. The note with it: Mus musculus, ip, read-out: ED50, inhibition of ptosis. From the text:
The 3-(piperidinyl)- and 3-(pyrrolidinyl)-1H-indazoles of the present invention are also useful as antidepressants by virtue of their ability to elicit an antidepressant response in mammals. […] Thus, for example,. the intraperitoneal (i.p.) dose effecting an estimated 50% inhibition of ptosis (ED50) in mice produced in this assay is as follows: […]

Assay [2] concerns mean arterial blood pressure. Kind of assay: antihypertensive activity, indirect tail cuff method, spontaneous hypertensive rat. It counts as in vivo. The conditions noted are these: third day. How it is done:
The compounds of the invention are also useful as antihypertensive agents due to their ability to depress blood pressure in mammals. Antihypertensive activity is measured in the spontaneous hypertensive rat by the indirect tail cuff method described in "Methods in Pharmacology," A. Schwartz, Ed., Vol. I, Appleton-Century Crofts, N.Y., 1971, p. 135. In this procedure a group of five animals are treated orally (p.o.) for three days with the test compound in relation to the control group of the same number. The drop in blood pressure is measured on the third day following administration. The antihypertensive activities of some of the compounds, expressed as mm decrease in mean arterial blood pressure are given below: […]

As for `CN1CCC(c2nn(-c3ccccc3N)c3ccccc23)CC1.O=C(O)/C=C/C(=O)O` [1-(2-Aminophenyl)-3-(1-methyl-4-piperidinyl)-1H-indazole fumarate], the ED50 (usually the midpoint of the dose-response relation) in assay [1] (estimated 50% inhibition) is 19.2 mg/kg.

`CN1CCC(c2nn(-c3ccccc3Cl)c3ccccc23)CC1.O=C(O)/C=C/C(=O)O` [1-(2-Chlorophenyl)-3-(1-methyl-4-piperidinyl)-1H-indazole fumarate]: in assay [1] (estimated 50% inhibition), the 50% effective dose (ED50) was 5.3 mg/kg.

In the case of `Clc1ccccc1-n1nc(C2CCNCC2)c2ccccc21.O=C(O)/C=C/C(=O)O` [1-(2-Chlorophenyl)-3-(4-piperidinyl)-1H-indazole fumarate], the 50% effective dose (ED50) in assay [1] (estimated 50% inhibition) was 5.9 mg/kg.

As to `CN1CCC(c2nn(-c3ccccc3F)c3ccccc23)CC1.Cl` [1-(2-Fluorophenyl)-3-(1-methyl-4-piperidinyl)-1H-indazole hydrochloride], in assay [1] (estimated 50% inhibition), the ED50 is 1.7 mg/kg.

Turning to `CN1CCC(c2nn(-c3cccc(F)c3)c3ccccc23)CC1.Cl` [1-(3-Fluorophenyl)-3-(1-methyl-4-piperidinyl)-1H-indazole hydrochloride], in assay [1] (estimated 50% inhibition), the ED50 was 5 mg/kg.

As to `COC(=N)N1CCC(c2n[nH]c3ccccc23)CC1` [4-(1H-indazol-3-yl)piperidine-1-carboximidic acid methyl ester], the “Decrease in Blood Pressure” value in assay [2] (3 mg/kg p.o.) was determined as 47 mm Hg.

`COC(=N)N1CCC(c2n[nH]c3cc(F)ccc23)CC1` [4-(6-fluoro-1H-indazol-3-yl)piperidine-1-carboximidic acid methyl ester]: the “Decrease in Blood Pressure” value in assay [2] (30 mg/kg p.o.) is given as 88 mm Hg.

As for `CN1CCC(c2nn(-c3ccccc3F)c3cc(F)ccc23)CC1.O=C(O)/C=C/C(=O)O` [6-Fluoro-1-(2-fluorophenyl)-3-(1-methyl-4-piperidinyl)-1H-indazole fumarate], the median effective dose (ED50) in assay [1] (estimated 50% inhibition) is 6.3 mg/kg.

Take `CN(C)CCC=C1c2ccccc2CCc2ccccc21` [amitriptyline, reference compound]: the median effective dose (ED50) in assay [1] (estimated 50% inhibition) is 1.5 mg/kg.

On to `N=C(N)NCCN1CCCCCCC1` [guanethidine, reference compound], for which the “Decrease in Blood Pressure” value in assay [2] (50 mg/kg p.o.) is 20 mm Hg.

As for `CN(C)CCCN1c2ccccc2CCc2ccccc21` [imipramine, reference compound], the ED50 in assay [1] came out at 1.3 mg/kg.
